# In patent US7612071B2, “Compositions and methods employing aminopterin” (Syntrix Biosystems, Inc., priority 2004, dated 2009):
# Read-outs that look alike come from different tables or passages of the source.
# Experiments:
# [1] = tested on: T-lineage acute lymphoblastic leukemia (ALL); settings: for Therapeutic Index / Toxicity Component: Antifolate dose with same toxicity as MTX at 100 mg/m^2/wk: T-lineage ALL; for Therapeutic Component: Antifolate dose / Therapeutic Component: Percentage effective (complete remission or stable disease): peripheral blasts and bone marrow infiltrates in T-lineage ALL, n=7; for Therapeutic Component: Percentage effective (complete remission or stable disease): AMT 4 mg/m^2/wk, MTX >5000 mg/m^2/wk in the same patients
# Method: Specifically, a clinical trial was performed in human adult and pediatric patients having T-lineage acute lymphoblastic leukemia (ALL) that was refractory to therapy or that had relapsed (see Table IV). The disease manifestations that were monitored were peripheral blasts and bone marrow infiltrates. The toxicity manifestations that were monitored were mucositis, neutropenia, thrombocytopenia and myelosuppression.
# [2] = mice, 4 weekly ip doses (aminopterin 0.03 mg/kg, methotrexate 0.3 mg/kg)
# [3] = Interpatient oral bioavailability in patients (oral vs intravenous AUC, matched); assay type: in vivo; settings: human, plasma
# Method: The term “interpatient oral bioavailability” as used herein refers to the mean oral bioavailability in a population of at least two patients, wherein the oral bioavailability is determined at least once for each patient in the population. The interpatient oral bioavailability may be calculated by dividing the mean population AUC after oral dosing by the mean population AUC after intravenous dosing, wherein the oral and intravenous doses are identical, and expressing the ratio as a percent. In a preferred method, the interpatient oral bioavailability is calculated using matched samples by averaging the oral bioavailabilities obtained for each patient. More specifically, the oral bioavailability is obtained for each patient by dividing the AUC after oral dosing the patient by the AUC after intravenous dosing the same patient with the same dose of antifolate (i.e. the oral and intravenous AUC in each patient are matched and the patients are said to be matched). The interpatient oral bioavailability based on these matched patients is then simply the mean population oral bioavailability expressed as a percent. […] It is sufficient to use a representative number of patients from a particular patient population to establish an interpatient oral bioavailability for that population, where at least 5 patients will be required in order to establish an interpatient oral bioavailability of a population.
# The term “oral bioavailability” as used herein refers to the fraction of an antifolate dose given orally that is absorbed into the plasma after a single administration to a patient. A preferred method for determining the oral bioavailability is by dividing the AUC of an antifolate dose given orally by the AUC of the same antifolate dose given intravenously to the same patient, and expressing the ratio as a percent. […]
# [4] = molecular target: T1, partially purified chicken liver DHFR (Gallus gallus, UniProt P00378); test: Radioligand DHFR binding assay; settings: aminopterin compared with methotrexate
# T1 sequence (P00378 1-189): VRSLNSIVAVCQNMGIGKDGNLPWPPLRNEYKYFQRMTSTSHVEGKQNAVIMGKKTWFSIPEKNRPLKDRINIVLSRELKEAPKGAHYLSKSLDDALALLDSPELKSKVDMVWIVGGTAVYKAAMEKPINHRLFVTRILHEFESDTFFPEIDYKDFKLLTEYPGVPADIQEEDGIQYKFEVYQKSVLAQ
# [5] = Storage of aqueous compositions; assay type: physicochemical; settings: parenteral, oral liquid or other aqueous compositions
# Source text: Because of their ease of administration, tablets and capsules represent the most advantageous oral dosage form in adults, in which case solid pharmaceutical carriers are employed. If desired, tablets may be coated by standard aqueous or nonaqueous techniques. The parenteral dosage form can consist of a sterile solution of the active ingredient, either in its free or salt form, in physiological buffer or sterile water. In addition, parenteral solutions can contain preservatives such as benzalkonium chloride, methyl- or propyl-paraben and chlorobutanol. Suitable pharmaceutical carriers are described in Remington's Pharmaceutical Sciences, a standard reference text in this field. […] Accordingly, such aqueous compositions are best stored desiccated and hydrated within several hours to several days prior to patient administration.
# [6] = tested on: standard and high-risk ALL; settings: for Coefficient of variation of toxicity of aminopterin as percent of that of methotrexate: both oral; for Therapeutic Component: Percentage effective (no evidence of a disease manifestation): greater than 12 months treatment, AMT 4 mg/m^2/wk high risk ALL (n=20), MTX 100 mg/m^2/wk standard risk ALL (n=20)
# [7] = Mean intrapatient coefficient of variation of oral bioavailability; assay type: in vivo; settings: human, plasma, 2 mg/m2; AMT 2 mg/m^2 PO, n=5
# Source text: The term “intrapatient coefficient of variation of oral bioavailability” as used herein refers to the coefficient of variation of oral bioavailability of two or more antifolate doses given to the same patient. Specifically, it is the standard deviation of oral bioavailability of the two or more antifolate doses in the same patient divided by the intrapatient oral bioavailability, expressed as a percent.
# The term “mean intrapatient coefficient of variation of oral bioavailability” as used herein refers to the average intrapatient coefficient of variation of oral bioavailability for two or more patients.
# The intrapatient oral bioavailability and standard deviation of the oral bioavailability were determined among the consecutive doses in a given patient, and the intrapatient coefficient of variation of oral bioavailability calculated for each patient by dividing the standard deviation by the intrapatient oral bioavailability.
# [8] = AMT 2 mg/m^2 PO x 2 (n=75), MTX 25 mg/m^2 PO x 4 (n=41)
# [9] = AMT 2 mg/m^2 PO x 2 (n=81), MTX 25 mg/m^2 PO x 4 (n=42)
# [10] = AMT 2 mg/m^2 PO x 2 (n=104), MTX 25 mg/m^2 PO x 4 (n=63)
# [11] = AMT 2 mg/m^2 PO x 2, MTX 25 mg/m^2 PO x 4
# [12] = eAMT and eMTX (marrow exposure)
compound,measurement,setting,value
Nc1nc(N)c2nc(CNc3ccc(C(=O)N[C@@H](CCC(=O)O)C(=O)O)cc3)cnc2n1 [AMT],Therapeutic Index,[1]; Mucositis vs peripheral blasts/bone marrow infiltrates,1
same,Toxicity Component: Antifolate dose with same toxicity as MTX at 100 mg/m^2/wk,[1]; Mucositis,4 mg/m^2/wk
same,Therapeutic Index,[1]; Myelosuppression,1
same,Toxicity Component: Antifolate dose with same toxicity as MTX at 100 mg/m^2/wk,[1]; Myelosuppression,4 mg/m^2/wk
same,Therapeutic Index,[1]; Neutropenia,1
same,Toxicity Component: Antifolate dose with same toxicity as MTX at 100 mg/m^2/wk,[1]; Neutropenia,4 mg/m^2/wk
same,Therapeutic Index,[1]; Thrombocytopenia,1
same,Toxicity Component: Antifolate dose with same toxicity as MTX at 100 mg/m^2/wk,[1]; Thrombocytopenia,4 mg/m^2/wk
same,Therapeutic Component: Antifolate dose,[1],4 mg/m^2/wk:
same,Therapeutic Component: Percentage effective (complete remission or stable disease),[1],43% complete
same,Therapeutic Component: Percentage effective (complete remission or stable disease),[1]; listed as aminopterin,43%
same,Therapeutic Component: Antifolate dose,[1]; listed as aminopterin,4 mg/m^2/wk
same,Therapeutic index of aminopterin relative to corresponding therapeutic index of methotrexate,[1]; peripheral blasts in T-lineage ALL and mucositis,greater than 50 fold
same,"antifolate content in brain parenchyma, aminopterin arm vs methotrexate arm","[2]; days 1, 12 and 22",significantly less antifolate
same,"antifolate content in liver, aminopterin vs methotrexate",[2]; days 1 and 22 after last dose,no different
same,bioavailability,"[3]; 2 mg/m2, AMT 2 mg/m^2, pediatric patients (age 0-21), 15 matched patients, read-out: Interpatient oral bioavailability (%)",94%
same,bioavailability,"[3]; 2 mg/m2, AMT 2 mg/m^2, pediatric patients, n=15, read-out: Maximum (%) oral bioavailability",165%
same,bioavailability,"[3]; 2 mg/m2, AMT 2 mg/m^2, pediatric patients, n=15, read-out: Minimum (%) oral bioavailability",45%
same,displacement of tritiated methotrexate and binding to DHFR,[4],equivalent
same,stability of aqueous compositions (conversion of aminopterin to folic acid),[5],accumulate folic acid to undesirable levels over the course of six months of storage
same,"Event-free survival (EFS) at 24-months, Kaplan Meier","[6]; 25 high risk patients receiving aminopterin, standard risk patients receiving methotrexate",93%
same,"Coefficient of variation of toxicity, absolute neutrophil count in consolidation",[6]; [8],80%
same,Mean absolute neutrophil count in consolidation,[6]; [8],1667 cells/μL
same,"Coefficient of variation of toxicity, platelet counts in consolidation",[6]; [9],58%
same,Mean platelet counts in consolidation,[6]; [9],316 cells × 10^3/μL
same,"Coefficient of variation of toxicity, level of liver enzymes above normal",[6]; [10],25%
same,Mean level of liver enzymes above normal,[6]; [10],188 IU/L ALT
same,"Coefficient of variation of toxicity, level of liver enzymes above normal","[6]; AMT 2 mg/m^2 PO x 2 (n=104), MTX 25 mg/m^2 PO x 4 (n=63), listed as aminopterin",25%
same,"Coefficient of variation Relative To The Invention, absolute neutrophil count in consolidation",[6]; [11],1.0
same,"Coefficient of variation Relative To The Invention, level of liver enzymes above normal",[6]; [11],1.0
same,"Coefficient of variation Relative To The Invention, platelet counts in consolidation",[6]; [11],1.0
same,Patients with severe hepatotoxicity (liver enzyme elevations greater than five times normal),"[6]; AMT 4 mg/m^2/wk (n=104), MTX 100 mg/m^2/wk (n=63)",5.8%
same,Therapeutic Component: Antifolate dose,"[6]; AMT high risk ALL (n=20), MTX standard risk ALL (n=20), Table V",4 mg/m^2/wk:
same,Therapeutic Component: Antifolate dose with same efficacy as MTX at 100 mg/m^2/wk,"[6]; AMT high risk ALL (n=20), MTX standard risk ALL (n=20), Table VI",4 mg/m^2/wk
same,Therapeutic Index,[6]; Any elevation of liver enzymes,1
same,Toxicity Component: Antifolate dose with same toxicity as MTX at 100 mg/m^2/wk,[6]; Any elevation of liver enzymes,4 mg/m^2/wk
same,Therapeutic Index,[6]; Elevations in liver enzymes >5 times normal,1
same,Toxicity Component: Antifolate dose causing 5.8% of the population to have the toxicity,[6]; Elevations in liver enzymes >5 times normal (severe hepatotoxicity),4 mg/m^2/wk
same,Therapeutic Index,[6]; Hospital admissions,1
same,Toxicity Component: Antifolate dose with same toxicity as MTX at 100 mg/m^2/wk,[6]; Hospital admissions,4 mg/m^2/wk
same,Therapeutic Index,[6]; Mucositis,1
same,Toxicity Component: Antifolate dose with same toxicity as MTX at 100 mg/m^2/wk,[6]; Mucositis,4 mg/m^2/wk
same,Therapeutic Index,[6]; Myelosuppression,1
same,Toxicity Component: Antifolate dose with same toxicity as MTX at 100 mg/m^2/wk,[6]; Myelosuppression,4 mg/m^2/wk
same,Therapeutic Index,[6]; Neutropenia,1
same,Toxicity Component: Antifolate dose with same toxicity as MTX at 100 mg/m^2/wk,[6]; Neutropenia,4 mg/m^2/wk
same,Therapeutic Index,[6]; Thrombocytopenia,1
same,Toxicity Component: Antifolate dose with same toxicity as MTX at 100 mg/m^2/wk,[6]; Thrombocytopenia,4 mg/m^2/wk
same,Therapeutic Index,[6]; Treatment interruptions,1
same,Toxicity Component: Antifolate dose with same toxicity as MTX at 100 mg/m^2/wk,[6]; Treatment interruptions,4 mg/m^2/wk
same,Therapeutic Index,[6]; [12],1
same,Toxicity Component: Antifolate dose with same toxicity as MTX at 100 mg/m^2/wk,[6]; [12],4 mg/m^2/wk
same,Coefficient of variation of toxicity of aminopterin as percent of that of methotrexate,"[6]; elevated liver enzymes, 2 mg/m^2 aminopterin vs 25 mg/m^2 methotrexate",71%
same,Coefficient of variation of toxicity of aminopterin as percent of that of methotrexate,"[6]; erythrocyte antifolate levels, 2 mg/m^2 aminopterin vs 20 mg/m^2 methotrexate",12.4%
same,Survival rate of high risk patients vs standard risk patients treated with equipotent methotrexate,"[6]; follow-up period of up to 15 months, 20 patients per arm",equivalent survival rate
same,Therapeutic Component: Percentage effective (no evidence of a disease manifestation),[6],100% effective at
same,Therapeutic Component: Percentage effective (no evidence of a disease manifestation),[6]; listed as aminopterin,100%
same,Mean intrapatient coefficient of variation of oral bioavailability,[7],25%
